The nature of this data set: Human HepG2 cell viability assay in 384 well format. Type of data set: toxicity, cell-based. Set-up: dose 125 nL, time 70.5 hour; cytotoxicity at 70.5 h: concentration not given beside the values. The following applies: HepG2 cells, read-out: Inhibition.
Consider `Cn1cccc1CN1CCC2(CC1)CN(c1ccccc1)C(=O)CO2`, for which the cytotoxicity at 70.5 h amounted to 2.21%.

As to `Cn1nc(Cn2ccnc2)c2c1CN(c1ncccn1)C2`, the cytotoxicity at 70.5 h is -4.86%.

Regarding `c1ccc(CCc2n[nH]c(C3CCOC3)n2)cc1` (stereo not drawn), the cytotoxicity at 70.5 h was -10.1%.

On to `Cc1occc1C(=O)N1CCc2c(COCC3CC3)cncc2C1`, for which the cytotoxicity at 70.5 h is -2.87%.

For the molecule `CS(=O)(=O)N1CCOCC12CCN(Cc1ccoc1)CC2`, the cytotoxicity at 70.5 h was -5.63%.

For the molecule `CC(OCC1CC1)C(=O)N1CCCN(Cc2cnn(C)c2)CC1` (stereo not drawn), the cytotoxicity at 70.5 h was determined as 24.6%.

Regarding `COc1ccc2c(=O)n(CC3CCCCN3C)ccc2c1OC` (stereo not drawn), the cytotoxicity at 70.5 h was -4.5%.

Regarding `O=S(=O)(C1CC1)N1C[C@@H]2CN(Cc3cccs3)CCO[C@@H]2C1`, the cytotoxicity at 70.5 h turned out to be 11.2%.

Consider `Cc1ccc(NCc2ccccc2C#N)cc1-n1cnnn1`, for which the cytotoxicity at 70.5 h is 0.552%.

`N#Cc1ccc(OCCCN2CCOC(Cn3cncn3)C2)cc1` (stereo not drawn): the cytotoxicity at 70.5 h came to 32.1%.

With `O=C(CNC(Cn1cccn1)c1ccccc1)Nc1cnccn1` (stereo not drawn), the cytotoxicity at 70.5 h was 13%.

Regarding `Cc1nn(C)c(C)c1OCC(=O)NCC(O)c1ccccc1F` (stereo not drawn), the cytotoxicity at 70.5 h stood at 0.771%.

In the case of `CS(=O)(=O)NC1CCN(C(=O)c2cc3ccccc3s2)C1` (stereo not drawn), the cytotoxicity at 70.5 h is -22.9%.

In the case of `Cc1nc(CN2C(=O)CC[C@@H]3[C@H]2CCN3C(=O)c2ccc[nH]2)cs1`, the cytotoxicity at 70.5 h was -7.13%.

Turning to `O=C(NCc1cc(Br)cs1)Nc1cn[nH]c1`, the cytotoxicity at 70.5 h was -23.7%.

Regarding `O=C1CCC2(CCN(c3ncc(F)cn3)CC2)N1CCN1CCCC1`, the cytotoxicity at 70.5 h amounted to 25.9%.

Turning to `CCOc1ncc(NC(=O)c2ccccn2)c(OCC)n1`, the cytotoxicity at 70.5 h is -13.3%.

For the molecule `Cc1cccc(Oc2ccccc2CNC(=O)C2CCC(=O)NC2)c1` (stereo not drawn), the cytotoxicity at 70.5 h is -10.6%.

As to `Cc1nn(C)c2nc(N(Cc3cnn(C)c3)C3CCCCC3)sc12`, the cytotoxicity at 70.5 h came out at 7.12%.

Turning to `COc1cccc(C(=O)N2CCCC(c3cc(C)[nH]n3)C2)c1OC` (stereo not drawn), the cytotoxicity at 70.5 h was -17.6%.

With `CCCc1n[nH]c(C2CN(C(=O)CCn3ccccc3=O)CCO2)n1` (stereo not drawn), the cytotoxicity at 70.5 h was -2.27%.

Regarding `CNC(=O)[C@H]1C[C@@H]2CCN(c3nnc(C)s3)C[C@@H]2O1`, the cytotoxicity at 70.5 h was -8.39%.

`Cn1nc(C(=O)NC2CC(C)(C)NC(C)(C)C2)cc1NC(=O)C1CC1`: the cytotoxicity at 70.5 h is -8.61%.

With `COCC1CC2(CCN(Cc3nccs3)CC2)CN1Cc1ccccn1` (stereo not drawn), the cytotoxicity at 70.5 h came out at 9.76%.

Take `COCC(=O)N1C[C@H]2CC[C@@]3(N=C(c4ccccc4)NC3=O)[C@H]2C1`: the cytotoxicity at 70.5 h is -3.3%.

`CNc1cccc(C2CCCN(C(=O)c3ccncc3)C2)n1` (stereo not drawn): the cytotoxicity at 70.5 h is -2.97%.

With `CC1(C(=O)N2CCOCC2)CNCCO1` (stereo not drawn), the cytotoxicity at 70.5 h was -7.18%.

As for `O=C(Cc1cccc(F)c1)NCCNCc1ccc2c(c1)CCO2`, the cytotoxicity at 70.5 h came to 6.87%.

With `COc1c(C(=O)NCc2cccnc2)nnn1Cc1ccccc1`, the cytotoxicity at 70.5 h is -7.04%.

As for `COCCN1CCCC(CN(C)c2nc3c(s2)c(C)nn3C)C1` (stereo not drawn), the cytotoxicity at 70.5 h is -4.58%.

Consider `Cc1cccc(CN2CC[C@@H]3[C@@H]2CCN3C(=O)Cc2ccsc2)n1`, for which the cytotoxicity at 70.5 h is -22.6%.

Regarding `CCCc1nnsc1C(=O)NCC1CCN(c2ncccn2)CC1`, the cytotoxicity at 70.5 h is -13.9%.

On to `CCC(NC(=O)NCc1ccoc1C)c1c(C)nn(C)c1C` (stereo not drawn), for which the cytotoxicity at 70.5 h was -5.65%.

As for `CN(C)CCNC(=O)CCn1ncc2c(Cl)cccc21`, the cytotoxicity at 70.5 h was -4.46%.

As for `O=C(NCc1nncn1C1CC1)C1(c2cccc(F)c2)CCOCC1`, the cytotoxicity at 70.5 h is -9.71%.

Turning to `CCCN1CCCn2c(nc(CNC(=O)c3cnoc3C)cc2=O)C1`, the cytotoxicity at 70.5 h was 16.5%.

On to `Fc1cccnc1O[C@@H]1CN(Cc2ccccn2)[C@@H]2CCCO[C@@H]21`, for which the cytotoxicity at 70.5 h is -10.3%.

For the molecule `CCC[C@H]1CN(CCS(C)(=O)=O)C[C@@H]1NC(=O)c1ccccn1`, the cytotoxicity at 70.5 h is -5.77%.

For the molecule `COC(=O)c1cccn1C1CCN(S(=O)(=O)c2ccccc2)CC1`, the cytotoxicity at 70.5 h was 3.76%.

Take `CC(=O)N1CCCN(c2cc(C3CN(C)CCO3)nc(C)n2)CC1` (stereo not drawn): the cytotoxicity at 70.5 h is 12%.

For `Cn1cc(CN2CCCC23CCN(C(=O)c2ccccc2)CC3)cn1`, the cytotoxicity at 70.5 h is -11.9%.

As to `O=C(N1CCOCC1)N1CCC2(CC1)CN(c1ccccn1)CCO2`, the cytotoxicity at 70.5 h was -6.33%.

`CC(C)CN1Cc2c(C(=O)N(C)C)ncn2-c2ccccc2S1(=O)=O`: the cytotoxicity at 70.5 h is -6.58%.

Take `OC[C@H]1CCN(Cc2ccc3ccccc3n2)C[C@@H]1O`: the cytotoxicity at 70.5 h is -4.84%.

With `Cc1ccc(S(=O)(=O)c2ncccc2CN2CCOCC2)cc1`, the cytotoxicity at 70.5 h is -17.9%.

Take `COc1ccc(C)cc1C(=O)NC1(C#N)CCOCC1`: the cytotoxicity at 70.5 h was -2.79%.

For the molecule `COCCC(=O)N1CCC2(CCN(Cc3cccc(F)c3)CC2)C1`, the cytotoxicity at 70.5 h is -4.51%.

Turning to `O=C(NCc1cccc(F)c1)NCC(O)c1cccc(F)c1` (stereo not drawn), the cytotoxicity at 70.5 h worked out at 20.3%.

Take `CCOc1ccccc1CSc1nnc(CC2CCS(=O)(=O)C2)n1C` (stereo not drawn): the cytotoxicity at 70.5 h was -11.4%.

Regarding `COCC1CN(C(C)=O)CCN(c2cc(C)ncn2)C1` (stereo not drawn), the cytotoxicity at 70.5 h stood at 10.4%.

Consider `CCCN1CCN(C(=O)CCn2nc(C(F)(F)F)c(Br)c2C)CC1`, for which the cytotoxicity at 70.5 h is -10.4%.

`COc1c(C)cnc(CN2CCC(N(C)S(C)(=O)=O)CC2)c1C`: the cytotoxicity at 70.5 h is -16%.

Take `Cc1ccsc1C(=O)N1CCCC(c2[nH]ncc2S(C)(=O)=O)C1` (stereo not drawn): the cytotoxicity at 70.5 h was -6.4%.

As to `COC1CCN(C(=O)COC(C)=O)CC(=O)N(C)c2ccccc21` (stereo not drawn), the cytotoxicity at 70.5 h was -3.04%.

For the molecule `COC(=O)CCCn1ccnc1-c1ccccc1`, the cytotoxicity at 70.5 h is -3.23%.

On to `CCc1nnc(SCC(=O)Nc2cc(C(C)(C)C)nn2C)[nH]1`, for which the cytotoxicity at 70.5 h is -5.12%.

Regarding `Cc1cc(-c2nnn(CCNS(C)(=O)=O)n2)ccc1F`, the cytotoxicity at 70.5 h was determined as 1.75%.

As to `C[C@H](NC(=O)C1(N(C)Cc2ccccc2)Cc2ccccc2C1)C(N)=O`, the cytotoxicity at 70.5 h was -2.36%.

For the molecule `O=S(=O)(C1CC1)N1C[C@H]2CCC[C@@]2(COCc2ccccn2)C1`, the cytotoxicity at 70.5 h is -14.3%.

Regarding `CCNC(=O)C(C)NC(=O)Nc1ccccc1Cl` (stereo not drawn), the cytotoxicity at 70.5 h is -6.58%.

Consider `c1ccc(NCc2cn3c(n2)CNCC3)nc1`, for which the cytotoxicity at 70.5 h is 2.18%.

In the case of `CC(C)NC(=O)N1CC[C@@H]2CN(S(C)(=O)=O)CCO[C@@H]2C1`, the cytotoxicity at 70.5 h is -4.96%.

In the case of `COc1c(C)cnc(CN2CCn3c(nnc3C(C)C)C2)c1C`, the cytotoxicity at 70.5 h was -1.82%.

Take `O=C(c1ccc(F)cc1)N1C[C@@H]2OCCN(c3ncccn3)[C@@H]2C1`: the cytotoxicity at 70.5 h worked out at 4.02%.

Consider `O=c1[nH]c(CCN2CCCCC2Cn2cccn2)nc2ccccc12` (stereo not drawn), for which the cytotoxicity at 70.5 h was -1.7%.

For `Cc1noc([C@]23COC[C@H]2CN(Cc2cc(C)on2)C3)n1`, the cytotoxicity at 70.5 h amounted to 47.3%.

Regarding `Cc1ccc2[nH]c([C@H]3CCN(CC4CCCCC4)C3)nc2c1`, the cytotoxicity at 70.5 h came out at 5.77%.

Consider `COCCN1CCCn2cnc(CNC3CCCC3)c2C1`, for which the cytotoxicity at 70.5 h is 0.0497%.

In the case of `CS(=O)(=O)CCN1CC(c2ccccc2)(c2ccccc2)CCC1=O`, the cytotoxicity at 70.5 h was 22.9%.

Take `CN(C)Cc1cnn(-c2ccccc2C(=O)NCCC2CCCN2C)c1` (stereo not drawn): the cytotoxicity at 70.5 h was -0.0444%.

For the molecule `NC(=O)CNC(=O)c1cc(Cn2cnc3ccccc32)[nH]n1`, the cytotoxicity at 70.5 h is -5.83%.

Regarding `CC(=O)N1CCCC(c2nc(-c3ccccc3)c[nH]2)C1` (stereo not drawn), the cytotoxicity at 70.5 h was -3.53%.

Take `Cc1cnc(C(=O)N2CCC3(CCN(Cc4ccccn4)C3=O)C2)cn1` (stereo not drawn): the cytotoxicity at 70.5 h was 6.84%.

With `COC[C@@H]1CC[C@H]2[C@H](CCN2C(=O)c2ccncc2F)O1`, the cytotoxicity at 70.5 h is -7.3%.

On to `Cc1ccc(C2COCCN2C(=O)c2ccc(CN(C)C)cc2)o1` (stereo not drawn), for which the cytotoxicity at 70.5 h was -6.21%.

As to `COc1ccc(CNCC2CN(C3CC3)CCO2)cc1OC` (stereo not drawn), the cytotoxicity at 70.5 h is -7.17%.

For the molecule `COC(=O)CNC(=O)c1ccn(-c2ccc(Cl)c(Cl)c2)n1`, the cytotoxicity at 70.5 h is -2.3%.

Take `CCn1cc(-c2cc(-c3cc(CC(=O)O)cs3)nc(N)c2C#N)c(C)n1`: the cytotoxicity at 70.5 h is -0.397%.

As to `NC(=O)C1CCCN1Cc1cccc(NC(=O)c2cc(Cl)cc(Cl)c2)c1` (stereo not drawn), the cytotoxicity at 70.5 h is -15.9%.

With `O=C(c1cc(-c2cccnc2)[nH]n1)N1CCCC(c2cnccn2)C1` (stereo not drawn), the cytotoxicity at 70.5 h stood at 12%.

For `CC(C)Cc1noc(CN2CCCC(Cn3cncn3)C2)n1` (stereo not drawn), the cytotoxicity at 70.5 h is 3.45%.

Regarding `CN(C)CC(=O)N1CCCC2(CCC(=O)N(CCc3c[nH]cn3)C2)C1` (stereo not drawn), the cytotoxicity at 70.5 h was -14.8%.

In the case of `Cc1nccn1CC1CCN(C(=O)c2cccs2)CC1`, the cytotoxicity at 70.5 h is -17.8%.

`CC(=O)Nc1nc(CN2CCCC2Cn2cncn2)cs1` (stereo not drawn): the cytotoxicity at 70.5 h amounted to 35.6%.

Regarding `Cc1noc(C)c1CN1CCc2ncnc(-c3cccnc3)c2CC1`, the cytotoxicity at 70.5 h was -0.64%.

Regarding `Cc1cccn2cc(CN3CCCC(O)C3)nc12` (stereo not drawn), the cytotoxicity at 70.5 h was -2.97%.

Take `O=C(NCc1ccccc1Cn1ccnc1)N1CCOCC1`: the cytotoxicity at 70.5 h was -9.82%.

Regarding `CN(C)Cc1nnc2n1CCCN(C(=O)c1c[nH]cn1)C2`, the cytotoxicity at 70.5 h is -0.569%.

As for `c1ccc(CO[C@@H]2CC[C@H]3[C@H]2OCCN3Cc2ccsc2)nc1`, the cytotoxicity at 70.5 h was 8.96%.

Turning to `Cc1csc(C2CCCCN2C(=O)c2cn[nH]c2C)n1` (stereo not drawn), the cytotoxicity at 70.5 h stood at 16.7%.

As for `Cc1ccc2c(n1)N(CCn1cccn1)CCN(C(=O)NC(C)C)C2`, the cytotoxicity at 70.5 h is 21.7%.

With `O=S(=O)(Cc1ccccc1)NCc1ccco1`, the cytotoxicity at 70.5 h is -5.52%.

Take `CC(C)c1nc(S(=O)(=O)Nc2ccnn2C2CCCC2)c[nH]1`: the cytotoxicity at 70.5 h is 1.34%.

Take `O=C(CC1CC1)N[C@@H]1CN(Cc2ccoc2)C[C@@H]2CCCO[C@@H]21`: the cytotoxicity at 70.5 h worked out at 14%.

As for `COCc1cnc2n1CCN(S(=O)(=O)c1c(C)nn(C)c1C)C2C` (stereo not drawn), the cytotoxicity at 70.5 h was 29%.

On to `Cn1cnnc1-c1cncc(NCc2cccc3c2OC(C)(C)C3)c1`, for which the cytotoxicity at 70.5 h was 8.22%.

On to `CCc1nc(CSc2nnc(N)n2C2CC2)no1`, for which the cytotoxicity at 70.5 h is -7.26%.

In the case of `Cc1ccc(Oc2ncccc2CNC2CCSCC2)cn1`, the cytotoxicity at 70.5 h was -8.64%.

Source of the values: ChEMBL document CHEMBL3507680, “University of Dundee, Gates Library screen for HepG2 cell viability”.
